Source: patent US6498125B2, “Pyridine ketones useful as herbicides” (Syngenta Participations AG, priority 1998, dated 2002)

Key:
Chenopodium [1] = assay: Example B3: pre-emergence action, 250 g/ha; type: in vivo; details: 250 g of AS/ha, sprayed immediately after sowing, 3 weeks, nine-level scale 1=complete damage, 9=no effect
Protocol: (§1) Monocotyledonous and dicotyledonous test plants are sown in pots in standard soil. Immediately after sowing, the test substances are sprayed on (500 l of spray liquorlha) as an aqueous suspension, prepared from a wettable powder WP10 corresponding to the desired dosage (250 g of a.i./ha).
(§2) The test plants are then grown under optimum conditions in a greenhouse. After a test period of 3 weeks, the test is evaluated with a nine -evel scale of ratings (1=complete damage, 9=no effect). Ratings of 1 to 4 (in particular 1 to 3) mean good to very good herbicidal action, 7-9 mean good tolerance.

Stellaria [2] = assay: Example B3: pre-emergence action, 250 g/ha; type: in vivo; details: 250 g of AS/ha, sprayed immediately after sowing, 3 weeks, nine-level scale 1=complete damage, 9=no effect
Protocol: as §1, §2

Abutilon [3] = assay: Example B3: pre-emergence action, 250 g/ha; type: in vivo; details: 250 g of AS/ha, sprayed immediately after sowing, 3 weeks, nine-level scale 1=complete damage, 9=no effect
Protocol: as §1, §2

Amaranthus [4] = assay: Example B3: pre-emergence action, 250 g/ha; type: in vivo; details: 250 g of AS/ha, sprayed immediately after sowing, 3 weeks, nine-level scale 1=complete damage, 9=no effect
Protocol: as §1, §2

Kochia [5] = assay: Example B3: pre-emergence action, 250 g/ha; type: in vivo; details: 250 g of AS/ha, sprayed immediately after sowing, 3 weeks, nine-level scale 1=complete damage, 9=no effect
Protocol: as §1, §2

Sida [6] = assay: Example B3: pre-emergence action, 250 g/ha; type: in vivo; details: 250 g of AS/ha, sprayed immediately after sowing, 3 weeks, nine-level scale 1=complete damage, 9=no effect
Protocol: as §1, §2

Chenopodium [7] = assay: Example B4: post-emergence action, 250 g/ha; type: in vivo; details: 250 g of AS/ha, sprayed in the 2-3-leaf stage, 0.2% X77, 3 weeks, nine-level scale 1=complete damage, 9=no effect
Protocol: (§3) Monocotyledonous and dicotyledonous test plants are sown in pots in standard soil. In the 2-3- leaf stage of the test plants, the test substances are sprayed on (500 l of spray liquor/ha) as an aqueous suspension, prepared from a wettable powder WP10 according to the desired dosage (250 g of a.i./ha). 0.2% of X77 is added as wetting agent to the spray liquor. The test plants are then grown under optimum conditions in a greenhouse.
(§4) After a test period of 3 weeks, the test is evaluated with a nine4evel scale of ratings (1=complete damage, 9=no effect). Ratings of 1 to 4 (in particular 1 to 3) mean good to very good herbicidal action, 7-9 mean good tolerance.

Stellaria [8] = assay: Example B4: post-emergence action, 250 g/ha; type: in vivo; details: 250 g of AS/ha, sprayed in the 2-3-leaf stage, 0.2% X77, 3 weeks, nine-level scale 1=complete damage, 9=no effect
Protocol: as §3, §4

Abutilon [9] = assay: Example B4: post-emergence action, 250 g/ha; type: in vivo; details: 250 g of AS/ha, sprayed in the 2-3-leaf stage, 0.2% X77, 3 weeks, nine-level scale 1=complete damage, 9=no effect
Protocol: as §3, §4

Amaranthus [10] = assay: Example B4: post-emergence action, 250 g/ha; type: in vivo; details: 250 g of AS/ha, sprayed in the 2-3-leaf stage, 0.2% X77, 3 weeks, nine-level scale 1=complete damage, 9=no effect
Protocol: as §3, §4

Kochia [11] = assay: Example B4: post-emergence action, 250 g/ha; type: in vivo; details: 250 g of AS/ha, sprayed in the 2-3-leaf stage, 0.2% X77, 3 weeks, nine-level scale 1=complete damage, 9=no effect
Protocol: as §3, §4

Sida [12] = assay: Example B4: post-emergence action, 250 g/ha; type: in vivo; details: 250 g of AS/ha, sprayed in the 2-3-leaf stage, 0.2% X77, 3 weeks, nine-level scale 1=complete damage, 9=no effect
Protocol: as §3, §4

[13] = tested on: Monocotyledonous and dicotyledonous test plants; assay: Example B2: post-emergence herbicidal action, 2 kg of AS/ha; type: in vivo; set-up: key: 1 = complete damage, 9 = no effect; details: 4- to 6-leaf stage, about 18 days, scale 1-9
Protocol: Monocotyledonous and dicotyledonous test plants are grown in plastic pots with standard soil in a greenhouse and, in the 4- to 6-leaf stage, are sprayed with an aqueous suspension of the test substances of the formula 1, prepared from a 25% wettable powder (Example F3, b) according to WO 97134485) or with an emulsion of the test substances of the formula I, prepared from a 25% emulsion concentrate (Example F1, c) according to WO 97/34485), corresponding to a dosage of 2 kg of AS/ha (500 l of water/ha). The test plants are then grown further under optimum conditions in a greenhouse. After a test period of about 18 days, the test is evaluated with a nine-level scale of rating (1=complete damage, 9=no effect). Ratings of 1 to 4 (in particular 1 to 3) mean good to very good herbicidal action. In this test, the compounds of the formula I show strong herbicidal action.

[14] = tested on: Monocotyledonous and dicotyledonous test plants; assay: Example B1: pre-emergence herbicidal action, 2 kg of AS/ha; type: in vivo; details: 3 weeks, scale 1-9
Protocol: Monocotyledonous and dicotyledonous test plants are sown in standard soil in plastic pots. Immediately after sowing, the test substances are sprayed on (500 l of water/ha) as an aqueous suspension (prepared from a 25% wettable powder (Example F3, b) according to WO 97/34485) or emulsion (prepared from a 25% emulsion concentrate (Example F1, c)), corresponding to a dosage of 2 kg of AS/ha. The test plants are then grown under optimum conditions in a greenhouse. After a test period of 3 weeks, the test is evaluated with a nine-level scale of ratings (1=complete damage, 9=no effect). Ratings of 1 to 4 (in particular 1 to 3) mean good to very good herbicidal action.

| Compound | melting point [°C] | Post-emergence action: Chenopodium (rating) (Chenopodium [7]) | Post-emergence action: Stellaria (rating) (Stellaria [8]) | Post-emergence action: Abutilon (rating) (Abutilon [9]) | Post-emergence action: Amaranthus (rating) (Amaranthus [10]) | Post-emergence action: Kochia (rating) (Kochia [11]) | Post-emergence action: Sida (rating) (Sida [12]) | further results |
| --- | --- | --- | --- | --- | --- | --- | --- | --- |
| CSc1ccc(C(=O)C2=C(O)C3CCC(C3)C2=O)c(C(F)(F)F)n1 (centres unmarked) [Compound 1.335] |  | 2 | 3 | 3 | 2 | 2 | 2 | Pre-emergence action: Chenopodium (rating) (Chenopodium [1]): 1; Pre-emergence action: Stellaria (rating) (Stellaria [2]): 7; Pre-emergence action: Abutilon (rating) (Abutilon [3]): 1; Pre-emergence action: Amaranthus (rating) (Amaranthus [4]): 2; Pre-emergence action: Kochia (rating) (Kochia [5]): 5; Pre-emergence action: Sida (rating) (Sida [6]): 2 |
| CS(=O)(=O)c1ccc(C(=O)C2=C(O)C3CCC(C3)C2=O)c(C(F)(F)F)n1 (centres unmarked) [Compound 1.339] |  | 3 | 3 | 2 | 2 | 1 | 4 | Pre-emergence action: Chenopodium (rating) (Chenopodium [1]): 1; Pre-emergence action: Stellaria (rating) (Stellaria [2]): 1; Pre-emergence action: Abutilon (rating) (Abutilon [3]): 2; Pre-emergence action: Amaranthus (rating) (Amaranthus [4]): 1; Pre-emergence action: Kochia (rating) (Kochia [5]): 7; Pre-emergence action: Sida (rating) (Sida [6]): 2 |
| CCSc1ccc(C(=O)C2=C(O)C3CCC(C3)C2=O)c(C(F)(F)F)n1 (centres unmarked) [Compound 1.341] |  | 3 | 4 | 5 | 2 | 4 | 5 | Pre-emergence action: Chenopodium (rating) (Chenopodium [1]): 1; Pre-emergence action: Stellaria (rating) (Stellaria [2]): 1; Pre-emergence action: Abutilon (rating) (Abutilon [3]): 3; Pre-emergence action: Amaranthus (rating) (Amaranthus [4]): 9; Pre-emergence action: Kochia (rating) (Kochia [5]): 9; Pre-emergence action: Sida (rating) (Sida [6]): 4 |
| C#CCOc1ccc(C(=O)C2=C(O)C3CCC(C3)C2=O)c(C(F)(F)F)n1 (centres unmarked) [Compound 1.351] |  | 3 | 3 | 5 | 2 | 3 | 3 |  |
| Cc1ccc(C(=O)C2=C(O)C3CCC(C3)C2=O)c(C(F)(F)F)n1 (centres unmarked) [Compound 1.361] |  | 2 | 3 | 2 | 2 | 2 | 2 |  |
| COc1nc(C(=O)C2=C(O)C3CCC(C3)C2=O)ccc1C(F)(F)F (centres unmarked) [Compound 2.038] | 111 to 113 |  |  |  |  |  |  |  |

Further lines, with some results ahead:

| melting point [°C] | Compound | Post-emergence action: Chenopodium (rating) (Chenopodium [7]) | Post-emergence action: Stellaria (rating) (Stellaria [8]) | Post-emergence action: Abutilon (rating) (Abutilon [9]) | Post-emergence action: Amaranthus (rating) (Amaranthus [10]) | Post-emergence action: Kochia (rating) (Kochia [11]) | Post-emergence action: Sida (rating) (Sida [12]) | further results |
| --- | --- | --- | --- | --- | --- | --- | --- | --- |
| 137 to 138 | Cc1nc(C(F)(F)F)ccc1C(=O)C1=C(Cl)C2CCC(C2)C1=O (centres unmarked) [Compound 1.398, 4-chloro-3-(2-methyl-6-trifluoromethyl-pyridine-3-carbonyl)bicyclo[3.2.1]oct-3-en-2-one] |  |  |  |  |  |  | post-emergence action rating, Avena ([13]; test plant Avena): 2; post-emergence action rating, Setaria ([13]; test plant Setaria): 2; post-emergence action rating, Sinapis ([13]; test plant Sinapis): 1; post-emergence action rating, Solanum ([13]; test plant Solanum): 2; post-emergence action rating, Stellaria ([13]; test plant Stellaria): 2; pre-emergence action rating, Avena ([14]; test plant Avena): 2; pre-emergence action rating, Cyperus ([14]; test plant Cyperus): 1; pre-emergence action rating, Setaria ([14]; test plant Setaria): 1; pre-emergence action rating, Sinapis ([14]; test plant Sinapis): 1; pre-emergence action rating, Solanum ([14]; test plant Solanum): 1; pre-emergence action rating, Stellaria ([14]; test plant Stellaria): 1 |
| 262 to 263 | Cc1nc(C(F)(F)F)ccc1C(=O)C1=C(N)C2CCC(C2)C1=O (centres unmarked) [Compound 1.399, 4-amino-3-(2-methyl-6-trifluoromethylpyridine-3-carbonyl)bicyclo[3.2.1]oct-3en-2-one] |  |  |  |  |  |  |  |
| 130 to 131 | Cc1nc(C(F)(F)F)ccc1C(=O)C1=C(Sc2ccc(Cl)cc2)C2CCC(C2)C1=O (centres unmarked) [Compound 1.412, 4-(4-chlorophenylsulfanyl)-3-(2-methyl-6-trifluoromethylpyridine-3-carbonyl)bicyclo[3.2.1]oct-3-en-2-one] |  |  |  |  |  |  |  |
| 166 to 167 | Cc1nc(C(F)(F)F)ccc1C(=O)C1=C(S(=O)(=O)c2ccc(Cl)cc2)C2CCC(C2)C1=O (centres unmarked) [Compound 1.414, 4-(4-chlorobenzenesulfonyl)-3-(2-methyl-6-trifluoromethylpyridine-3-carbonyl)bicyclo[3.2.1]oct-3-en-2-one] |  |  |  |  |  |  |  |
| 107 to 110 | CSc1nc(C(=O)C2=C(O)C3CCC(C3)C2=O)ccc1C(F)(F)F (centres unmarked) [Compound 2.03] |  |  |  |  |  |  |  |
